Assay results taken from ChEMBL document CHEMBL1124696, “Nucleoside peptides. 10. Synthesis and T-cell immunostimulatory properties of certain peptide derivatives of 6-azacadeguomycin” (1989).

How the values were obtained:
Type in all cases: functional
Homo sapiens [1] = organism: Homo sapiens; test: Mitogen-induced human lymphocyte proliferation measured by incorporation of [3H]thymidine in lymphocytes with Pokeweed mitogen at a concentration of 1/1250 microg with compound at 0.1 uM
Homo sapiens [2] = organism: Homo sapiens; test: Mitogen-induced human lymphocyte proliferation measured by incorporation of [3H]thymidine in lymphocytes with Pokeweed mitogen at a concentration of 1/1250 microg with compound at 10 uM
Homo sapiens [3] = organism: Homo sapiens; test: Mitogen-induced human lymphocyte proliferation measured by incorporation of [3H]thymidine in lymphocytes with Pokeweed mitogen at a concentration of 1/1250 microg with compound at 1 uM
Homo sapiens [4] = organism: Homo sapiens; test: Mitogen-induced human lymphocyte proliferation measured by incorporation of [3H]thymidine in lymphocytes with Pokeweed mitogen at a concentration of 1/1250 microg with compound at 400 uM
Homo sapiens [5] = organism: Homo sapiens; test: Mitogen-induced human lymphocyte proliferation measured by incorporation of [3H]thymidine in lymphocytes with Pokeweed mitogen at a concentration of 1/1250 microg with compound at 50 uM
Homo sapiens [6] = organism: Homo sapiens; test: Mitogen-induced human lymphocyte proliferation measured by incorporation of [3H]-thymidine in lymphocytes with Pokeweed mitogen at a concentration of 1/1250 microg with out compound
Homo sapiens [7] = organism: Homo sapiens; test: Mitogen-induced human lymphocyte proliferation measured by incorporation of [3H]thymidine in lymphocytes with Pokeweed mitogen at a concentration of 1/5000 microg with compound at 0.1 uM
Homo sapiens [8] = organism: Homo sapiens; test: Mitogen-induced human lymphocyte proliferation measured by incorporation of [3H]thymidine in lymphocytes with Pokeweed mitogen at a concentration of 1/5000 microg with compound at 10 uM
Homo sapiens [9] = organism: Homo sapiens; test: Mitogen-induced human lymphocyte proliferation measured by incorporation of [3H]thymidine in lymphocytes with Pokeweed mitogen at a concentration of 1/5000 microg with compound at 1 uM
Homo sapiens [10] = organism: Homo sapiens; test: Mitogen-induced human lymphocyte proliferation measured by incorporation of [3H]thymidine in lymphocytes with Pokeweed mitogen at a concentration of 1/5000 microg with compound at 400 uM
Homo sapiens [11] = organism: Homo sapiens; test: Mitogen-induced human lymphocyte proliferation measured by incorporation of [3H]thymidine in lymphocytes with Pokeweed mitogen at a concentration of 1/5000 microg with compound at 50 uM
Homo sapiens [12] = organism: Homo sapiens; test: Mitogen-induced human lymphocyte proliferation measured by incorporation of [3H]thymidine in lymphocytes with Pokeweed mitogen at a concentration of 1/5000 microg with out compound
Homo sapiens [13] = organism: Homo sapiens; test: Mitogen-induced human lymphocyte proliferation measured by incorporation of [3H]thymidine in lymphocytes with Phytohemagglutininin at a concentration of 1 ug with compound at 0.1 uM
Homo sapiens [14] = organism: Homo sapiens; test: Mitogen-induced human lymphocyte proliferation measured by incorporation of [3H]thymidine in lymphocytes with Phytohemagglutininin at a concentration of 1 ug with compound at 10 uM
Homo sapiens [15] = organism: Homo sapiens; test: Mitogen-induced human lymphocyte proliferation measured by incorporation of [3H]thymidine in lymphocytes with Phytohemagglutininin at a concentration of 1 ug with compound at 1 uM
Homo sapiens [16] = organism: Homo sapiens; test: Mitogen-induced human lymphocyte proliferation measured by incorporation of [3H]thymidine in lymphocytes with Phytohemagglutininin at a concentration of 1 ug with compound at 400 uM
Homo sapiens [17] = organism: Homo sapiens; test: Mitogen-induced human lymphocyte proliferation measured by incorporation of [3H]thymidine in lymphocytes with Phytohemagglutininin at a concentration of 1 ug with compound at 50 uM
Homo sapiens [18] = organism: Homo sapiens; test: Mitogen-induced human lymphocyte proliferation measured by incorporation of [3H]thymidine in lymphocytes with Phytohemagglutininin at a concentration of 1 ug with out compound
Homo sapiens [19] = organism: Homo sapiens; test: Mitogen-induced human lymphocyte proliferation measured by incorporation of [3H]thymidine in lymphocytes with Concanavalin A (Con A) at a concentration of 0.25 microg with compound at 1 uM
Homo sapiens [20] = organism: Homo sapiens; test: Mitogen-induced human lymphocyte proliferation measured by incorporation of [3H]thymidine in lymphocytes with Concanavalin A (Con A) at a concentration of 0.25 microg with out compound
Homo sapiens [21] = organism: Homo sapiens; test: Mitogen-induced human lymphocyte proliferation measured by incorporation of [3H]thymidine in lymphocytes with Concanavalin A at a concentration of 0.25 microg with compound at 400 uM
Homo sapiens [22] = organism: Homo sapiens; test: Mitogen-induced human lymphocyte proliferation measured by incorporation of [3H]thymidine in lymphocytes with Phytohemagglutininin at a concentration of 0.125 microg with compound at 0.1 uM
Homo sapiens [23] = organism: Homo sapiens; test: Mitogen-induced human lymphocyte proliferation measured by incorporation of [3H]thymidine in lymphocytes with Phytohemagglutininin at a concentration of 0.125 microg with compound at 10 uM
Homo sapiens [24] = organism: Homo sapiens; test: Mitogen-induced human lymphocyte proliferation measured by incorporation of [3H]thymidine in lymphocytes with Phytohemagglutininin at a concentration of 0.125 microg with compound at 1 uM
Homo sapiens [25] = organism: Homo sapiens; test: Mitogen-induced human lymphocyte proliferation measured by incorporation of [3H]thymidine in lymphocytes with Phytohemagglutininin at a concentration of 0.125 microg with compound at 400 uM
Homo sapiens [26] = organism: Homo sapiens; test: Mitogen-induced human lymphocyte proliferation measured by incorporation of [3H]thymidine in lymphocytes with Phytohemagglutininin at a concentration of 0.125 microg with compound at 50 uM
Homo sapiens [27] = organism: Homo sapiens; test: Mitogen-induced human lymphocyte proliferation measured by incorporation of [3H]thymidine in lymphocytes with Phytohemagglutininin at a concentration of 0.125 microg with out compound
Homo sapiens [28] = organism: Homo sapiens; test: Mitogen-induced human lymphocyte proliferation measured by incorporation of [3H]thymidine in lymphocytes with Concanavalin A (Con A) at a concentration of 0.25 microg with compound at 0.1 uM
Homo sapiens [29] = organism: Homo sapiens; test: Mitogen-induced human lymphocyte proliferation measured by incorporation of [3H]thymidine in lymphocytes with Concanavalin A (Con A) at a concentration of 0.25 microg with compound at 10 uM
Homo sapiens [30] = organism: Homo sapiens; test: Mitogen-induced human lymphocyte proliferation measured by incorporation of [3H]thymidine in lymphocytes with Concanavalin A (Con A) at a concentration of 0.25 microg with compound at 50 uM
Homo sapiens [31] = organism: Homo sapiens; test: Mitogen-induced human lymphocyte proliferation measured by incorporation of [3H]thymidine in lymphocytes with Phytohemagglutininin at a concentration of 0.25 ug with out compound
Homo sapiens [32] = organism: Homo sapiens; test: Mitogen-induced human lymphocyte proliferation measured by incorporation of [3H]-thymidine in lymphocytes with Phytohemagglutininin at a concentration of 1 ug with compound at 10 uM
Homo sapiens [33] = organism: Homo sapiens; test: Mitogen-induced human lymphocyte proliferation measured by incorporation of [3H]thymidine in lymphocytes with Pokeweed mitogen at a concentration of 1/1250 ug with compound at 0.1 uM
Homo sapiens [34] = organism: Homo sapiens; test: Mitogen-induced human lymphocyte proliferation measured by incorporation of [3H]thymidine in lymphocytes with Pokeweed mitogen at a concentration of 1/1250 ug with compound at 10 uM
Homo sapiens [35] = organism: Homo sapiens; test: Mitogen-induced human lymphocyte proliferation measured by incorporation of [3H]thymidine in lymphocytes with Pokeweed mitogen at a concentration of 1/1250 ug with compound at 1 uM
Homo sapiens [36] = organism: Homo sapiens; test: Mitogen-induced human lymphocyte proliferation measured by incorporation of [3H]thymidine in lymphocytes with Pokeweed mitogen at a concentration of 1/1250 ug with out compound
Homo sapiens [37] = organism: Homo sapiens; test: Mitogen-induced human lymphocyte proliferation measured by incorporation of [3H]thymidine in lymphocytes with Pokeweed mitogen at a concentration of 1/1250 ug with compound at 50 uM
Homo sapiens [38] = organism: Homo sapiens; test: Mitogen-induced human lymphocyte proliferation measured by incorporation of [3H]thymidine in lymphocytes with Pokeweed mitogen at a concentration of 1/1250 ug with compound at 400 uM
Homo sapiens [39] = organism: Homo sapiens; test: Mitogen-induced human lymphocyte proliferation measured by incorporation of [3H]thymidine in lymphocytes with Concanavalin A (Con A) at a concentration of 0.5 ug with compound at 0.1 uM
Homo sapiens [40] = organism: Homo sapiens; test: Mitogen-induced human lymphocyte proliferation measured by incorporation of [3H]-thymidine in lymphocytes with Concanavalin A (Con A) at a concentration of 0.5 ug with compound at 1 uM
Homo sapiens [41] = organism: Homo sapiens; test: Mitogen-induced human lymphocyte proliferation measured by incorporation of [3H]thymidine in lymphocytes with Concanavalin A (Con A) at a concentration of 0.5 ug with out compound
Homo sapiens [42] = organism: Homo sapiens; test: Mitogen-induced human lymphocyte proliferation measured by incorporation of [3H]thymidine in lymphocytes with Concanavalin A (Con A) at a concentration of 0.5 ug with compound at 10 uM
Homo sapiens [43] = organism: Homo sapiens; test: Mitogen-induced human lymphocyte proliferation measured by incorporation of [3H]thymidine in lymphocytes with Concanavalin A (Con A) at a concentration of 0.5 ug with compound at 50 uM
Homo sapiens [44] = organism: Homo sapiens; test: Mitogen-induced human lymphocyte proliferation measured by incorporation of [3H]thymidine in lymphocytes with Concanavalin A at a concentration of 0.5 ug with compound at 400 uM
Homo sapiens [45] = organism: Homo sapiens; test: Mitogen-induced human lymphocyte proliferation measured by incorporation of [3H]thymidine in lymphocytes with Phytohemagglutininin at a concentration of 0.25 ug with compound at 10 uM
Homo sapiens [46] = organism: Homo sapiens; test: Mitogen-induced human lymphocyte proliferation measured by incorporation of [3H]thymidine in lymphocytes with Phytohemagglutininin at a concentration of 0.25 ug with compound at 1 uM
Homo sapiens [47] = organism: Homo sapiens; test: Mitogen-induced human lymphocyte proliferation measured by incorporation of [3H]thymidine in lymphocytes with Phytohemagglutininin at a concentration of 0.25 ug with compound at 400 uM
Homo sapiens [48] = organism: Homo sapiens; test: Mitogen-induced human lymphocyte proliferation measured by incorporation of [3H]thymidine in lymphocytes with Phytohemagglutininin at a concentration of 0.25 ug with compound at 50 uM
Homo sapiens [49] = organism: Homo sapiens; test: Mitogen-induced human lymphocyte proliferation measured by incorporation of [3H]-thymidine in lymphocytes with Phytohemagglutininin at a concentration of 0.25 ug with compound at 0.1 uM

Nc1nc(O)c2c(C(=O)O)cn(C3O[C@H](CO)[C@@H](O)[C@H]3O)c2n1 (some centres undefined)
Incorporation (Homo sapiens [1]): 51152 | Incorporation (Homo sapiens [2]): 54392 | Incorporation (Homo sapiens [3]): 53594 | Incorporation (Homo sapiens [4]): 14118 | Incorporation (Homo sapiens [5]): 50597 | Incorporation (Homo sapiens [6]): 52418 | Incorporation (Homo sapiens [7]): 47896 | Incorporation (Homo sapiens [8]): 43600 | Incorporation (Homo sapiens [9]): 44790 | Incorporation (Homo sapiens [10]): 10034 | Incorporation (Homo sapiens [11]): 42735 | Incorporation (Homo sapiens [12]): 40053 | Incorporation (Homo sapiens [13]): 38824 | Incorporation (Homo sapiens [14]): 42486 | Incorporation (Homo sapiens [15]): 45537 | Incorporation (Homo sapiens [16]): 55547 | Incorporation (Homo sapiens [17]): 36835 | Incorporation (Homo sapiens [18]): 40349 | Incorporation (Homo sapiens [19]): 43757 | Incorporation (Homo sapiens [20]): 42670 | Incorporation (Homo sapiens [21]): 9782 | Incorporation (Homo sapiens [22]): 13682 | Incorporation (Homo sapiens [23]): 17242 | Incorporation (Homo sapiens [24]): 14865 | Incorporation (Homo sapiens [25]): 1268 | Incorporation (Homo sapiens [26]): 15707 | Incorporation (Homo sapiens [27]): 15708 | Incorporation (Homo sapiens [28]): 45121 | Incorporation (Homo sapiens [29]): 42403 | Incorporation (Homo sapiens [30]): 12990

Nc1nc2c(c(C(=O)N[C@@H](CCC(=O)O)C(=O)O)nn2C2O[C@H](CO)[C@@H](O)[C@H]2O)c(=O)[nH]1 (some centres undefined)
Incorporation (Homo sapiens [31]): 6506 | Incorporation (Homo sapiens [32]): 50830 | Incorporation (Homo sapiens [33]): 51918 | Incorporation (Homo sapiens [34]): 49105 | Incorporation (Homo sapiens [35]): 56187 | Incorporation (Homo sapiens [36]): 40443 | Incorporation (Homo sapiens [37]): 53140 | Incorporation (Homo sapiens [13]): 49176 | Incorporation (Homo sapiens [15]): 50330 | Incorporation (Homo sapiens [16]): 44427 | Incorporation (Homo sapiens [17]): 50246 | Incorporation (Homo sapiens [18]): 56641 | Incorporation (Homo sapiens [38]): 49556 | Incorporation (Homo sapiens [39]): 43786 | Incorporation (Homo sapiens [40]): 49196 | Incorporation (Homo sapiens [41]): 26393 | Incorporation (Homo sapiens [42]): 47573 | Incorporation (Homo sapiens [43]): 41114 | Incorporation (Homo sapiens [44]): 45681 | Incorporation (Homo sapiens [45]): 16224 | Incorporation (Homo sapiens [46]): 12995 | Incorporation (Homo sapiens [47]): 13781 | Incorporation (Homo sapiens [48]): 14187 | Incorporation (Homo sapiens [49]): 8002
